From US11612586B2, “Indole regulation of antigen presenting cells” (THE TEXAS A&M UNIVERSITY SYSTEM, priority 2016, dated 2023) come the findings set out here.

For assay [1], the system named is HeLa cells. In words: Salmonella invasion of indole-treated HeLa cells (colonization resistance). Type of assay: cell-based. Conditions: host cells treated with indole.
The subject of assay [2] is IL-6. In words: IL-6 production in BMDCs, intracellular staining, flow cytometry. Conditions: indole 24 hours (overnight), LPS 1 ug/ml 4 hours. Type of assay: cell-based, mouse. From the text:
Briefly, bone marrow was harvested from femurs of mice and cultured for 7 days in the presence of DC-skewing cytokines, GM-CSF and IL-4. […] The pro-inflammatory cytokines, IL-6 and IL-12, were specifically queried. […] Immune cells communicate largely through the production of soluble factors including cytokines, and DCs detect these signals and determine their effector functions accordingly.
(A flow cytometer gives signals particle by particle.)

For assay [3], the system named is TGF-β. In words: TGF-β production by BMDC cultures (ELISA). Type of assay: cell-based, mouse. Conditions: indole-conditioned DCs. Here is the method: To determine whether this was a specific downregulation of pro-inflammatory cytokines, production of the canonical DC-produced anti-inflammatory cytokines, IL-10 and TGF-β, was also examined.
Cytokine concentration in the supernatant of BMDC cultures was assessed using commercially available ELISA kits for IL-10 (Peprotech) and TGF-β (eBioscience) per the manufacturer's instructions.
(ELISA stands for enzyme-linked immunosorbent assay.)

Assay [4] relates to naïve CD4+CD25− T cells. Put plainly: DC-T cell co-culture, polyclonal stimulation: Foxp3+ Treg induction. Conditions: naïve T cells co-cultured 72 hours with BMDCs conditioned with indole. Type of assay: cell-based, mouse. Here is the method: FIG. 15 is a set of FACS plots showing that indole-conditioned DCs preferentially induce Foxp3+ Tregs (polyclonal stimulation). Naïve wild-type CD4+CD25− T cells were sorted and co-cultured with indole- or DMF-conditioned BMDCs. Cells were cultured together for 72 hours in the presence of soluble α-CD3 (5 ug/ml) as well as TGF-β (2 ng/ml) with or without IL-2 (100 U/ml). Subsequently, cells were stained for the transcription factor Foxp3 and analyzed by flow cytometry. Shaded gray histograms represent unstained controls. Representative data from one of four experiments is shown.
To investigate whether indole-conditioned DCs preferentially induce Tregs, a co-culture system using FACS-sorted wild-type naïve CD4+CD25− T cells was employed. These naïve T cells were activated by antibodies against CD3 and CD28 in the presence of indole-conditioned BMDCs and cultured for 72 hours. Under this platform for polyclonal stimulation, a 2-fold increase in Treg induction in indole-DC cultures compared to controls was observed (FIG. 15). Additionally, the inventors pursued the same question in a more physiologically relevant model; i.e., under monoclonal T cell stimulation. […]

In assay [5] the test system is TNF. Put plainly: TNF production in BMDMs, intracellular staining, flow cytometry. Format: cell-based, mouse. Here is the method:
BMDMs were treated with indole or DMF control for 18 hours or 4 hours, followed by stimulation with LPS (2 ug/ml or 250 ng/ml) for 4 hours in the presence of Golgiplug. BMDMs were then stained for intracellular TNF or IL-12 and analyzed by flow cytometry.
First, pro-inflammatory cytokine production in macrophages was investigated. […] In the DC study described herein, DCs were typically conditioned with indole during their development from bone marrow precursors in order to mimic the proximity of DC progenitor cells to indole in the intestinal microenvironment during development. […] BMDMs were treated for 18 hours with indole, followed by a 4 hour stimulation with either a very high (2 ug/ml) or low (250 ng/ml) dose of LPS.
Additionally, to determine if recently arrived macrophage precursors might also be affected, BMDMs were next treated for just 4 hours with indole, followed by a […] stimulation with the same LPS concentrations.
To address the question of indole and AhR dependence in macrophages, experiments using BMDMs derived from AhR-knockout mice were run alongside wild-type littermate controls. Specifically, flow cytometric analysis of BMDMs was performed on WT or AhR-KO mice and treated with indole or DMF control for 18 hours. BMDMs were stimulated for 4 hours with LPS (50 ng/ml) in the presence of Golgiplug, then stained for intracellular TNF (left panels) and IL-12 (right panels).
(§1) The inventors performed a series of assays where bone marrow derived macrophages (BMDMs), bone marrow derived dendritic cells (BMDCs), and splenic dendritic cells (splenic DCs), were exposed to a series of TDMMs, including indole, indole-3-acetate (I3AT), 5-hydroxyindole (5HI), and indole-3-pyruvate (I3P), as well as indole-3-carbinol (I3C; a plant derived compound) to be used for a positive control (1 mM for 24 hours). The BMDMs and BMDCs were stimulated with LPS for 4 hours and assayed at day 7 for expression of various pro-inflammatory cytokines. In a similar assay, the BMDMs and BMDCs were stimulated with LPS or CpG, respectively, for 15 minutes and assayed for pAKT and pERK signaling, which is a reflection of pro-inflammatory response.
Bone marrow was harvested as described above and cultured at a density of 1×10^6 cells in 10 ml complete media supplemented with 10 ng/ml M-CSF (Peprotech) in 100 mm×15 mm petri dishes. Media with cytokine was replenished on day 3. Adherent and semi-adherent cells were recovered on day 7, plated, and treated with indole prior to downstream experiments.

Assay [6] relates to Erk. In words: phospho-Erk signaling in BMDMs. Format: cell-based, mouse. On the procedure: The PI3K/Akt and MAPK/Erk signaling pathways regulate many cellular processes including survival, apoptosis, growth, and cytokine production. […] Specifically, BMDMs were treated with indole (1 mM) or DMF control for 18 hours, then stimulated with LPS (10 ug/ml) or CpG (5 uM) for 30 minutes. Cells were stained for phospho-Akt or phospho-Erk and analyzed by flow cytometry.
as §1

Assay [7] relates to Erk. Put plainly: pERK signaling in BMDCs. Format: cell-based, mouse. Conditions: 1 mM TDMM 24 hours, CpG (5 uM) 15 minutes. Here is the method:
as §1

With `c1ccc2[nH]ccc2c1` [Indole, indole], in assay [1], the “reduction of Salmonella invasion of indole-treated HeLa cells” value is 70%. Moreover, the “inhibition of IL-6 production” value in assay [2] is no less than 2 fold. Moreover, the TGF-β production result in assay [3] is reported as “Neither IL-10 nor TGF-β production were affected”. Moreover, in assay [4], the “increase in Treg induction compared to controls” value stood at 2 fold. For the same compound, the “reduction of TNF production” value in assay [5] (BMDMs from WT or AhR-KO mice, 1 mM indole 18 hours, LPS 50 ng/ml 4 hours) was “approximately 2 fold”. Further, the TNF entry in assay [5] (BMDMs, 1 mM TDMM 24 hours, LPS 1 ug/ml 4 hours) was “↓↓↓”. Further, the “inhibition of TNF production” value in assay [5] (BMDMs, 1 mM indole 18 hours, LPS 2 ug/ml or 250 ng/ml 4 hours) is listed as roughly 2 fold. In addition, the pERK result is listed as “↓” in assay [6] (1 mM TDMM 24 hours, LPS 1 ug/ml 15 minutes) and “↓↓” in assay [7]. The “dampening of pErk signaling” value in assay [6] (indole 1 mM 18 hours, LPS (10 ug/ml) or CpG (5 uM) 30 minutes) is given as “approximately 50%”.
